pIC50: −log10 of the molar value. In brackets after ≈: the same amount, converted by molar mass.
Tests used:
MRC5 = assay: Compound was tested in vitro for antiviral activity against Herpes viruses(HSV-2, VZV) in human fibroblast (MRC-5) cells.; assay type: functional, cell-based
Human alphaherpesvirus 3 = assay: Compound was tested in vitro for antiviral activity against Varicella zoster virus (VZV) in ellen cells.; assay type: functional, organism-based
Homo sapiens = species: Homo sapiens; assay: Compound was tested for its activity against HIV replication in human peripheral blood lymphocytes (PBLs) using MTT-based cytotoxicity assay.; assay type: functional, organism-based
D34 = assay: Compound was tested in vitro for antiviral activity against Human immunodeficiency virus type-1 in D34 cells.; assay type: functional, cell-based
Human alphaherpesvirus 2 = assay: Compound was tested in vitro for antiviral activity against Herpes simplex virus-Type 2 in MS cells.; assay type: functional, organism-based; settings: Human alphaherpesvirus 2, MS
Human alphaherpesvirus 1 = assay: Compound was tested in vitro for antiviral activity against Herpes simplex virus-Type 1 in SC 16 cells.; assay type: functional, organism-based

IC50 (Human alphaherpesvirus 3) [mg/L] | pIC50 (D34) | IC50 (Human alphaherpesvirus 2) [mg/L] | IC50 (Human alphaherpesvirus 1) [mg/L] | SMILES | IC50 (MRC5) [mg/L] | pIC50 (Homo sapiens)
6 (≈ 19.8 µM) | 8.00 | 23 (≈ 75.9 µM) | > 100 | Nc1nc(O)c2ncn(OCCCCP(=O)(O)O)c2n1 | 1.6 (≈ 5.28 µM) | < 4.00
> 100 | < 4.00 | > 100 | > 100 | Nc1ncnc2c1ncn2OCC(CO)CCP(=O)(O)O (stereo unspecified) | > 100 | 
17 (≈ 51.2 µM) |  | > 100 | > 100 | Nc1nc(N)c2ncn(OCC(CO)CCP(=O)(O)O)c2n1 (stereo unspecified) | 78 (≈ 235 µM) | 
> 100 | < 4.00 | > 100 | > 100 | Nc1ncnc2c1ncn2OCCCCP(=O)(O)O | 58 (≈ 202 µM) | 
17 (≈ 56.2 µM) | 6.00 | > 100 | > 100 | Nc1nc(N)c2ncn(OCCCCP(=O)(O)O)c2n1 | 26 (≈ 86 µM) | < 4.00
5 (≈ 15 µM) | < 4.00 | > 100 | > 100 | Nc1nc(O)c2ncn(OCC(CO)CCP(=O)(O)O)c2n1 (stereo unspecified) | 8.8 (≈ 26.4 µM) | 
